Data on 14 compounds can be found in patent US12202843B2, “Muscarinic receptor agonists” (Nxera Pharma UK Limited, priority 2014, dated 2025).

Holding throughout (assay type): cell-based
In experiment [1] the target is T1, human muscarinic M1 receptor (Homo sapiens, UniProt P11229).
T1 sequence (P11229 1-460): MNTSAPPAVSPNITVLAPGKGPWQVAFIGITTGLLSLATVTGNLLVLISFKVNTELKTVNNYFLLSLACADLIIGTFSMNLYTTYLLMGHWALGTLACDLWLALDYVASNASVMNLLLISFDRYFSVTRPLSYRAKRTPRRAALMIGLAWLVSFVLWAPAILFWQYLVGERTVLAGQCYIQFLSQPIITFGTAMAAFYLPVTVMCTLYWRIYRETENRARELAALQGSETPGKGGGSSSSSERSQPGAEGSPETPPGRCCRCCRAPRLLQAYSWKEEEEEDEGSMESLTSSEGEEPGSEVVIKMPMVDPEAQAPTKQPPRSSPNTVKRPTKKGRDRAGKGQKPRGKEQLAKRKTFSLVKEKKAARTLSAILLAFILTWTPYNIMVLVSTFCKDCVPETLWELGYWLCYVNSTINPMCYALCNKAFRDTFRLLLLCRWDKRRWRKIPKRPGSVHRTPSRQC
Nature of the experiment: Alphascreen Surefire phospho-ERK1/2 functional assay, M1. The note with it: for EC50: CHO cells stably expressing human M1, read-out: pEC50 M1 (converted); for Emax: CHO, read-out: % Emax cf. ACh, M1, CHO cells stably expressing human M1, relative to ACh; for % Emax cf. ACh, M1: CHO cells stably expressing human M1, relative to ACh. The protocol: (§1) ERK1/2 phosphorylation is a downstream consequence of both Gq/11 and Gi/o protein coupled receptor activation, making it highly suitable for the assessment of M1, M3 (Gq/11 coupled) and M2, M4 receptors (Gi/o coupled), rather than using different assay formats for different receptor subtypes. CHO cells stably expressing the human muscarinic M1, M2, M3 or M4 receptor were plated (25K/well) onto 96-well tissue culture plates in MEM-alpha+10% dialysed FBS. Once adhered, cells were serum-starved overnight. Agonist stimulation was performed by the addition of 5 μL agonist to the cells for 5 min (37° C.). Media was removed and 50 μL of lysis buffer added. […] Plates were incubated for 2 h with gentle agitation in the dark and then read on a PHERAstar plate reader.
(§2) pEC50 and Emax figures were calculated from the resulting data for each receptor subtype.
For orientation: Bead proximity is the source of the signal in Alpha formats.

Experiment [2] has as its target T2, human muscarinic M4 receptor (Homo sapiens, UniProt P08173).
T2 construct: expressed in transfected cells
T2 sequence (P08173 1-479): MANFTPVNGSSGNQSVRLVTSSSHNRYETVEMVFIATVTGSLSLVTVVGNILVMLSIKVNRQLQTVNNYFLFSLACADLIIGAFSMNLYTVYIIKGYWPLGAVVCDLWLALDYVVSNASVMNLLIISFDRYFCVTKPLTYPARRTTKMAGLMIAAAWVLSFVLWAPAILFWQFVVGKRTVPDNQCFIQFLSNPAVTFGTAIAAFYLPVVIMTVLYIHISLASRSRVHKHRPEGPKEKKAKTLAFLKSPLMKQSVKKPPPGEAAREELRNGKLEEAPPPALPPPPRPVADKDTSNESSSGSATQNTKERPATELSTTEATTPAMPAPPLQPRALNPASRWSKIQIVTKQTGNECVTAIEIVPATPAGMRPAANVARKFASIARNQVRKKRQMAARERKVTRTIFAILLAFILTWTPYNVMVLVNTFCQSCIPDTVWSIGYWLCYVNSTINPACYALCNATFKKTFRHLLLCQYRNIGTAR
Nature of the experiment: Alphascreen Surefire phospho-ERK1/2 functional assay, M4. The note with it: for EC50: CHO cells stably expressing human M4, read-out: pEC50 M4 (converted); for Emax: CHO, read-out: % Emax cf. ACh, M4, CHO cells stably expressing human M4, relative to ACh; for % Emax cf. ACh, M4: CHO cells stably expressing human M4, relative to ACh. The method, then:
as §1, §2

Experiment [3] has as its target T3, human muscarinic M2 receptor (Homo sapiens, UniProt P08172).
T3 sequence (P08172 1-466): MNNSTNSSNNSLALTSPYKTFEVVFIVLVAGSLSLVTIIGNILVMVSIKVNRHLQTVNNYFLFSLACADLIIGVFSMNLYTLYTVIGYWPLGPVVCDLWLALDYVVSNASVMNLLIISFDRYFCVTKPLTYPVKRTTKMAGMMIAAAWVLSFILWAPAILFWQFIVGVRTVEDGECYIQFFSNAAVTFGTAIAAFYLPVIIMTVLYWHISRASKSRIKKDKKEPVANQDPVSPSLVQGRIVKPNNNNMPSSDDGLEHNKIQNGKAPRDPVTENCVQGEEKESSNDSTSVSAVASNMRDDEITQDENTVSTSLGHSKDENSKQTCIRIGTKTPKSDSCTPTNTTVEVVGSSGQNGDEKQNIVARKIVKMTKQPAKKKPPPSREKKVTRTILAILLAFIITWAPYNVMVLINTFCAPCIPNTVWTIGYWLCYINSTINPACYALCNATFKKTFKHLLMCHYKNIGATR
Nature of the experiment: Alphascreen Surefire phospho-ERK1/2 functional assay, M2. The note with it: for EC50: CHO cells stably expressing human M2, read-out: pEC50 M2 (converted); for Emax: CHO, read-out: % Emax cf. ACh, M2, CHO cells stably expressing human M2, relative to ACh; for % Emax cf. ACh, M2: CHO cells stably expressing human M2, relative to ACh. The protocol:
as §1, §2

Experiment [4] has as its target T4, human muscarinic M3 receptor (Homo sapiens, UniProt P20309).
T4 construct: expressed in transfected cells
Put plainly: Alphascreen Surefire phospho-ERK1/2 functional assay, M3. The note with it: for EC50: CHO cells stably expressing human M3, read-out: pEC50 M3 (converted); for Emax: CHO, read-out: % Emax cf. ACh, M3, CHO cells stably expressing human M3, relative to ACh; for % Emax cf. ACh, M3: CHO cells stably expressing human M3, relative to ACh. The method, then: as §1, §2

T4 sequence (P20309 whole entry): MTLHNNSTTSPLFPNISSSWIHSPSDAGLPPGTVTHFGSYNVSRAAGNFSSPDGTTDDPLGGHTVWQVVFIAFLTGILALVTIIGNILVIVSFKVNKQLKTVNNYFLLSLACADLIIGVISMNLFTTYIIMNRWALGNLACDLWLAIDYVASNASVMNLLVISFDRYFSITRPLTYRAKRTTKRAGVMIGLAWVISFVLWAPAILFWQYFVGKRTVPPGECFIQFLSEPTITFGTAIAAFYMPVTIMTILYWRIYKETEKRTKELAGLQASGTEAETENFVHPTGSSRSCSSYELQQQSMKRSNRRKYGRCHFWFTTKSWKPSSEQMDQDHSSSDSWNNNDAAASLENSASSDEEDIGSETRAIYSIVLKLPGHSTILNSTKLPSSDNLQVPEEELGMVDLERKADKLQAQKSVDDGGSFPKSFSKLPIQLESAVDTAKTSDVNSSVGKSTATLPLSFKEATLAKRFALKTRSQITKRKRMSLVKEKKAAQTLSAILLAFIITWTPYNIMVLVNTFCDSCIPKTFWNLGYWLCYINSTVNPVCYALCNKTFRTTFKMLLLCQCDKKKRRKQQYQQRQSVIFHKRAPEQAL

What is called Emax is the greatest response seen or fitted, relative to the assay's reference. `CC#CCOC(=O)N1[C@@H]2CCC[C@H]1CC(N1CCC3(CC1)CNC(=O)C3)C2` (mixture of isomers) [Example 5-3]: the EC50 in experiment [1] was 31.6 nM; in experiment [2] it was 31.6 nM; in experiment [3], over 20000 nM; in experiment [4] it was 6310 nM. Also, the maximal response (Emax) amounted to 80% in experiment [1], 37% in experiment [2], 7% in experiment [3] and 19% in experiment [4].
`CCOC(=O)N1C2CCC1CC(N1CCC3(CC1)CNC(=O)C3)C2` (single isomer, unassigned) [Example 2-2 Isomer 2, ethyl 3-(3-oxo-2,8-diazaspiro[4.5]dec-8-yl)-8-azabicyclo[3.2.1]octane-8-carboxylate]: the maximum response (Emax) came to 86% in experiment [1] and 0% in experiment [3]. The “% Emax cf. ACh, M4” value in experiment [2] (listed as 2-2 Isomer 2) is on record as 31%. Moreover, the “% Emax cf. ACh, M3” value in experiment [4] (listed as 2-2 Isomer 2) is 0%.
As to `O=C1CC2(CCN(C3CC4CCC(C3)N4C(=O)OCCF)CC2)CN1` (single isomer, unassigned) [Example 2-3 Isomer 2], the EC50 is 79.4 nM in experiment [1], over 20000 nM in experiment [2], over 20000 nM in experiment [3] and over 20000 nM in experiment [4]. For the same compound, in experiment [1] (listed as 2-3 Isomer 2), the “% Emax cf. ACh, M1” value amounted to 49%. In addition, the “% Emax cf. ACh, M4” value in experiment [2] (listed as 2-3 Isomer 2) turned out to be 16%. Besides, the maximum response (Emax) was determined as 4% in experiment [3] and 0% in experiment [4].
With `C#CCOC(=O)N1C2CCC1CC(N1CCC3(CC1)CNC(=O)C3)C2` (single isomer, unassigned) [Example 2-4 Isomer 1], the EC50 in experiment [1] is 100 nM; in experiment [2], 126 nM; in experiment [3], over 20000 nM; in experiment [4], over 20000 nM. Besides, the figures for the maximal effect (Emax) in experiment [1] and in experiment [2] were 92% and 64%, respectively. Also, in experiment [3] (listed as 2-4 Isomer 1), the “% Emax cf. ACh, M2” value came to 27%. In experiment [4] (listed as 2-4 Isomer 1), the “% Emax cf. ACh, M3” value came to 7%.
`C#CCOC(=O)N1C2CCC1CC(N1CCC3(CC1)CNC(=O)C3)C2` (single isomer, unassigned) [Example 2-4 Isomer 2]: in experiment [1], the EC50 was 20 nM and the “% Emax cf. ACh, M1” value amounted to 86%. Further, in experiment [2], the EC50 is 25.1 nM and the “% Emax cf. ACh, M4” value is on record as 53%. In addition, the “% Emax cf. ACh, M2” value in experiment [3] (listed as 2-4 Isomer 2) turned out to be 8%. Besides, the “% Emax cf. ACh, M3” value in experiment [4] (listed as 2-4 Isomer 2) came to 0%.
Regarding `CCOC(=O)N1CC2CCC1CC2N1CCC2(CC1)CNC(=O)O2` (single isomer, unassigned) [Example 3-2 Isomer 2, ethyl 5-(2-oxo-1-oxa-3,8-diazaspiro[4.5]dec-8-yl)-2-azabicyclo[2.2.2]octane-2-carboxylate], in experiment [1], the EC50 was 100 nM and the “% Emax cf. ACh, M1” value stood at 127%. Further, in experiment [2], the EC50 is 398 nM and the “% Emax cf. ACh, M4” value amounted to 36%.
For `CCOC(=O)N1CC2CCC1CC2N1CCC2(CC1)OC(=O)NC2CC` (single isomer, unassigned) [Example 3-3 Isomer 2, ethyl 5-(4-ethyl-2-oxo-1-oxa-3,8-diazaspiro[4.5]dec-8-yl)-2-azabicyclo[2.2.2]octane-2-carboxylate], in experiment [1], the EC50 was 794 nM and the Emax is 76%. In experiment [2], the EC50 is 316 nM and the Emax was 56%.
In the case of `CCOC(=O)N1CC2CCC(C1)C2N1CCC2(CC1)CNC(=O)C2` (single isomer, unassigned) [Example 4-1 Isomer 2], the EC50 in experiment [1] was 501 nM; in experiment [2], over 20000 nM. Also, the maximum response (Emax) in experiment [1] came out at 36%; in experiment [2] it was 3%.
Turning to `CCOC(=O)N1C2CCCC1CC(N1CCC3(CC1)CNC(=O)O3)C2` (single isomer, unassigned) [Example 5-4 Isomer 1], the EC50 in experiment [1] is 398 nM; in experiment [2], over 20000 nM. In experiment [1], the Emax came out at 76%. In addition, in experiment [2] (listed as 5-4 Isomer 1), the “% Emax cf. ACh, M4” value is 39%.
Take `COC(=O)N1CC2CC(N3CCC4(CC3)CNC(=O)C4)CC1C2` (single isomer, unassigned) [Example 6-1 Isomer 1]: the EC50 in experiment [1] is 2510 nM. Besides, the “% Emax cf. ACh, M1” value in experiment [1] (listed as 6-1 Isomer 1) came out at 78%. Also, in experiment [2], the EC50 is over 20000 nM and the maximal response (Emax) was 53%.
As to `CCOC(=O)N1C2CCC1CC(N1CCCC3(CC1)CNC(=O)O3)C2` (single isomer, unassigned) [Example 9-2 Isomer 1, ethyl 3-(2-oxo-1-oxa-3,8-diazaspiro[4.6]undec-8-yl)-8-azabicyclo[3.2.1]octane-8-carboxylate], the EC50 in experiment [1] and in experiment [2] was over 20000 nM each time. In experiment [1] (listed as 9-2 Isomer 1), the “% Emax cf. ACh, M1” value was 23%. Also, the “% Emax cf. ACh, M4” value in experiment [2] (listed as 9-2 Isomer 1) is 13%.
For the compound `CCOC(=O)N1C2CCC1CC(N1CCCC3(CC1)CNC(=O)O3)C2` (single isomer, unassigned) [Example 9-2 Isomer 2, ethyl 3-(2-oxo-1-oxa-3,8-diazaspiro[4.6]undec-8-yl)-8-azabicyclo[3.2.1]octane-8-carboxylate], the EC50 in experiment [1] and in experiment [2] was over 20000 nM throughout. For the same compound, the “% Emax cf. ACh, M1” value in experiment [1] (listed as 9-2 Isomer 2) is 18%. Further, the “% Emax cf. ACh, M4” value in experiment [2] (listed as 9-2 Isomer 2) was 8%.
`CCOC(=O)N1C2CCC1CC(N1CCCC3(CC1)CNC(=O)O3)C2` (single isomer, unassigned) [Example 9-2 Isomer 3, ethyl 3-(2-oxo-1-oxa-3,8-diazaspiro[4.6]undec-8-yl)-8-azabicyclo[3.2.1]octane-8-carboxylate]: the EC50 in experiment [1] is 501 nM; in experiment [2], 79.4 nM. Moreover, the “% Emax cf. ACh, M1” value in experiment [1] (listed as 9-2 Isomer 3) was found to be 113%. The “% Emax cf. ACh, M4” value in experiment [2] (listed as 9-2 Isomer 3) came to 81%.
Turning to `CCOC(=O)N1C2CCC1CC(N1CCCC3(CC1)CNC(=O)O3)C2` (single isomer, unassigned) [Example 9-2 Isomer 4, ethyl 3-(2-oxo-1-oxa-3,8-diazaspiro[4.6]undec-8-yl)-8-azabicyclo[3.2.1]octane-8-carboxylate], the results for the EC50 in experiment [1] and in experiment [2] were 10 nM and 5.01 nM, respectively. For the same compound, the “% Emax cf. ACh, M1” value in experiment [1] (listed as 9-2 Isomer 4) is 103%. The “% Emax cf. ACh, M4” value in experiment [2] (listed as 9-2 Isomer 4) is recorded as 66%.
